Test results: patent US8247572B2, “Facilitated transport of bisphosphonates by vitamin C” (Duke University, priority 2005, dated 2012)

How the values were obtained:
[1] = test system: primary human chondrocytes; experiment: BP / BP-AA uptake assay in chondrocyte monolayer (HPLC); format: cell-based
Procedure: Uptake Assay Methods. Primary human chondrocytes were seeded at a density of 4.5×10^5 cells for 48 hours. The cells were washed with ascorbic acid transport buffer. The free bisphosphonate (BP) and the bisphosphonate conjugated to ascorbic acid (BP-AA) were solubilized in ascorbic acid transport buffer at 10 mM concentration. The cells were incubated with either the free BP or the BP-AA for an hour at 37° C./5% CO2. The cells were washed 4× with ice-cold PBS to remove any extracellular BP or BP-AA. The cells were then lysed in 250 μl ddH2O for 15 minutes on ice, sonicated for 5 minutes, and then scraped from the culture dish. The lysate was then analyzed by ion pair reverse phase HPLC with UV and electrochemical detection (ECD) as described below.
HPLC Methods. Ascorbic acid, free and conjugated, and risedronate analogs were determined by a modification of an ion pair reverse phase high-performance liquid chromatography method initially described by Vallano et al. (Vallano, P. T., Shugarts, S. B., Kline, W. F., Woolf, E. J., and Matuszewski, B. K., Determination of Risedronate in Human Urine by Column-Switching Ion-Pair High-Performance Liquid Chromatography with Ultraviolet Detection. J Chromatogr B Analyt Technol Biomed Life Sci, 2003, 794:23-33). The column consisted of a C18 packing, the mobile phase contained 8% acetonitrile and 92% of 0.005M Q8 (1-octyltriethylammonium phosphate [Regis Technologies, Morton Grove, Ill.]) and 1 mM etidronate (1-hydroxyethylidene-1,1-diphosphonic acid [Strem Chemicals, Newburyport, Mass.]) in a sodium phosphate buffer, pH 6.2, and was pumped at […]. The injection volume was 100 μl and detection was at 262 nm (UV) and 0.7V (ECD).

[2] = test system: primary human chondrocytes; experiment: Ascorbic acid transport assay in isolated primary human chondrocytes; format: cell-based; settings: for ability to compete with L-14C-Asc for transport: 2 mM unlabeled competitor; for suppression of L-14C-Asc transport by unlabeled competitor: 2 mM competitor, versus no competitor
Procedure: Ascorbic Acid Transport Assay in Isolated Primary Human Chondrocytes. AA transport was measured using a modified version of the uptake assay published by Wilson and Dixon (J. X. Wilson, S. J. Dixon, High-Affinity Sodium-Dependent Uptake of Ascorbic Acid by Rat Osteoblasts, J. Mem. Biol. 111 (1989) 83-91). Primary human chondrocytes were seeded at a density of 4.5×10^5 cells/well on a 6-well plate (or 2.25×10^5 cells/well on a 12-well plate for the kinetic experiments). Prior to the transport assay, cells were plated for 48 hours in DMEM/F12, containing 10% FCS but no AA. Cells were washed in transport buffer containing: 134 mM NaCl, 5.4 mM KCl, 1.8 mM CaCl2, 0.8 mM MgSO4, 10 mM D-glucose, 20 mM HEPES, pH 7.3 with NaOH. […] The standard AA transport assay conditions were 37° C./5% CO2 for 10 minutes. AA uptake was terminated by washing the cells four-times in ice-cold PBS. The cells were lysed with Puregene Cell Lysis Solution (Gentra Systems) and scintillation counting was performed in Uniscint BD (National Diagnostics).
In experiments with sodium free transport buffer, iso-osmotic concentrations of LiCl were substituted for NaCl. […]

[3] = test system: primary human chondrocytes; experiment: Dehydroascorbate transport assay in isolated primary human chondrocytes; format: cell-based; settings: for ability to compete with L-14C-DHA transport: 2 mM unlabeled competitor; for mode of inhibition of L-14C-DHA transport (Dixon plot): data not shown; for inhibition of DHA transport: 0.1 mM inhibitor, p<0.001; for increase in L-14C-DHA uptake versus 21% oxygen tension: 24 hours
Procedure: Dehydroascorbate Transport Assay in Isolated Primary Human Chondrocytes. DHA transport was measured using a modified version of the uptake assay published by Wilson and Dixon (Wilson J X, Dixon S J. High-Affinity Sodium-Dependent Uptake of Ascorbic Acid by Rat Osteoblasts. J. Mem. Biol. 1989; 111:83-91). Primary human chondrocytes were seeded at a density of 4.5×10^5 cells/well on a 6-well plate. Prior to the transport assay, cells were plated for 48 hours in DMEM/F12, containing 10% FCS but no AA or DHA. Cells were washed in transport buffer containing: 134 mM LiCl, 5.4 mM KCl, 1.8 mM CaCl2, 0.8 mM MgSO4, 20 mM HEPES, pH 7.3 with KOH. DHA uptake was assessed by incubating the chondrocytes in transport buffer containing 189 μM L-^14C-dehydroascorbate (L-^14C-DHA). […] The standard DHA transport assay conditions were 37° C./5% CO2/21% O2 for 10 min. DHA uptake was terminated by washing the cells four-times in ice-cold PBS. […] The total pmol of L-^14C-DHA transported was calculated using the total dpm of L-^14C-DHA transported and the specific activity of the radiolabel.
Matrix Biol. 2002; 21:175-184). Stock solutions of different unlabeled DHA forms were generated in the same manner as the L-^14C-DHA. […]

[4] = test system: human articular cartilage explants; settings: 50 µM
Text: Cartilage explants were isolated from human knee articular cartilage surgical waste tissues at the time of knee replacement surgery (n=5). Cartilage was harvested from non-lesioned areas, using a 2 mm diameter micro dissecting trephine (Biomedical Research Instruments, Rockville, Md.). A group of five cartilage plugs was pooled to constitute one sample. Each sample was paired with a corresponding sample from the same specimen and the same sites. The cartilage plugs were weighed and then transferred to a 24-well plate, containing 1 ml wash media (described in the chondrocyte isolation procedure). The cartilage plugs were incubated in 1 ml DMEM/F12 (Gibco, Grand Island, N.Y.) with 10% FCS (Gibco) and no AA for 48 hours at 37° C./5% CO2, prior to the procedures below.
The cartilage explants were washed with PBS and half of the samples were transferred to 1.5 ml centrifuge tubes with a drop of PBS. The tubes were frozen in liquid nitrogen for three minutes and thawed at 37° C. for five minutes. This freeze/thaw procedure was performed for a total of three cycles. The dead explants were transferred back to the 24-well plates.
Explant Ascorbic Acid Transport Assay. […] Samples were processed to isolate the cells from the matrix fraction (see Intracellular versus Extracellular AA) or counted for radioactivity by transferring the whole explants to glass scintillation vials and solubilizing the samples overnight at room temperature in 0.5 ml Solulene 350 (Perkin Elmer Life and Analytical Services, Boston, Mass.). Hionic Fluor scintillation fluid (5 ml, Perkin Elmer Life and Analytical Services) was added, and radioactivity was counted in the live and dead explants, using a scintillation counter.
Explant isolation, explant treatments, and the explant AA transport assay (through the PBS wash step) were performed, followed by the chondrocyte isolation procedure described above. After the cell fraction was isolated from the matrix, the cells were washed, then 15 μl of the cells were counted on a hemacytometer, in order to determine the total number of cells in the cell fraction. […]

[5] = 100 μM inhibitor, 10 minutes, p<0.001

## O=C(CCC(=O)OCC(O)C1OC(=O)C(O)=C1O)Nc1ccc(NC(P(=O)(O)O)P(=O)(O)O)nc1 [BP-AA, 6-O-{N-[6-[(bisphosphonomethyl)amino]pyridin-3-yl]}succinyl-L-ascorbic acid]
[1]; 10 mM BP-AA, one hour
  transport of BP-AA versus AA alone: 143 fold
[1]; 10 mM, one hour, 37° C.
  amount gaining entry to chondrocytes in monolayer: 2281 nmol/mg protein
[1]; Homo sapiens, Chondrocyte, 1 h, 10 mM BP-AA, one hour, no sodium, read-out: inhibition of BP-AA uptake in the absence of sodium
  inhibition at 10000 µM: 50%

## O=C1O[C@H]([C@H](O)CO)C(O)=C1O [D-Asc, D-isoascorbic acid]
[2]; 10 minutes
  ability to compete with L-14C-Asc for transport: unable to effectively compete
[3]; 10 min
  ability to compete with L-14C-DHA transport: able to effectively compete
[3]
  mode of inhibition of L-14C-DHA transport (Dixon plot): non-competitive inhibitors

## O=C1O[C@@H]([C@H](O)CO)C(=O)C1=O [D-DHA, D-dehydroascorbate]
[3]; 10 min
  ability to compete with L-14C-DHA transport: able to effectively compete

## O=C1OC(C(O)CO)C(=O)C1=O [DHA, L-dehydroascorbate]
[2]; 10 minutes
  ability to compete with L-14C-Asc for transport: unable to effectively compete
[3]; 10 min
  ability to compete with L-14C-DHA transport: able to effectively compete
[3]; human, 10 min, 189 µM, pH 7.3
  increase in DHA transport versus 21% oxygen tension: 2.7 fold
  increase of DHA transport versus 21% oxygen tension: 3.2 fold
  increase of DHA transport versus 21% oxygen tension, mean: 3.5 fold
  passive diffusion of DHA as share of transport under optimized conditions: 11%

## O=C1O[C@H]([C@@H](O)CO)C(O)=C1O [L-Asc, L-ascorbic acid]
[2]; 0-500 μM L-14C-Asc, Michaelis-Menten
  vMax for AA transport in chondrocytes: 148+/−35 pmol L-^14C-Asc/10^6 cells/10 minutes
[2]; 0-500 μM L-14C-Asc, Michaelis-Menten, read-out: Km for AA transport in chondrocytes
  Km: 179 µM
[2]; 200 μM L-14C-Asc, 10 minutes
  concentration of unlabeled L-Asc at which the transporter is fully saturated: approximately 1000 μM
[2]; 10 minutes, p<0.001
  suppression of L-14C-Asc transport by unlabeled competitor: approximately 60%
[3]; 10 min
  ability to compete with L-14C-DHA transport: able to effectively compete
[3]
  mode of inhibition of L-14C-DHA transport (Dixon plot): non-competitive inhibitors
[4]
  calculated intracellular concentration of total AA, deep zone cells: 45 mM
  calculated intracellular concentration of total AA, middle zone cells: 51 mM
  calculated intracellular concentration of total AA, superficial zone cells: 67 mM

## O=C1O[C@H]([C@H](O)CO)C([O-])=C1O.[Na+] [Na D-Asc, Na D-isoascorbate]
[2]; 10 minutes
  ability to compete with L-14C-Asc for transport: unable to effectively compete
[3]; 10 min
  ability to compete with L-14C-DHA transport: able to effectively compete

## O=C1O[C@H]([C@@H](O)CO)C([O-])=C1O.[Na+] [Na L-Asc, Na L-ascorbate]
[2]; 10 minutes, p<0.001
  suppression of L-14C-Asc transport by unlabeled competitor: 75%
[3]; 10 min
  ability to compete with L-14C-DHA transport: able to effectively compete

## C=C1[C@@H](C)[C@H]2[C@H](Cc3ccccc3)NC(=O)[C@]23OC(=O)/C=C/[C@H](O)CCC[C@@H](C)C/C=C/[C@H]3[C@@H]1O [cytochalasin B]
[2]; [5]
  inhibition of L-14C-Asc transport: 40%
[3]; 10 min
  inhibition of DHA transport: 95%

## C[C@H]1C/C=C/[C@H]2[C@@H]3O[C@]3(C)[C@@H](C)[C@H]3[C@H](Cc4ccccc4)NC(=O)[C@]32OC(=O)O/C=C/[C@@](C)(O)C1=O [cytochalasin E]
[2]; [5]
  inhibition of L-14C-Asc transport: 35%
[3]; 10 min
  inhibition of DHA transport: 40%

## O=C1C(CC[S+]([O-])c2ccccc2)C(=O)N(c2ccccc2)N1c1ccccc1 (stereo not shown) [sulfinpyrazone]
[2]; Homo sapiens, Chondrocyte, 10 min, 100 μM inhibitor, 10 minutes, p<0.001, read-out: inhibition of L-14C-Asc transport
  inhibition at 100 µM: ~65%
[1]; Homo sapiens, Chondrocyte, 0.75 h, 100 μM sulfinpyrazone, 45 minutes in advance of 10 mM BP-AA
  inhibition at 100 µM: ~75%

## L-^14C-dehydroascorbate [L-^14C-DHA]
[3]; 2.5% oxygen, absence of glucose
  increase in L-14C-DHA uptake versus 21% oxygen tension: 1.6 fold
[3]; 5% oxygen
  increase in L-14C-DHA uptake versus 21% oxygen tension: no increase
[3]; O2 tension 5%, 24 hrs
  14C-DHA Uptake (change versus 21% oxygen tension): No change

## Na D-dehydroascorbate [Na D-DHA]
[3]; 10 min
  ability to compete with L-14C-DHA transport: unable to compete

## Na L-dehydroascorbate [Na L-DHA]
[3]; 10 min
  ability to compete with L-14C-DHA transport: able to effectively compete
